Measurements: ChEMBL document CHEMBL6087424, “Opportunities and Challenges of Arginase Inhibitors in Cancer: A Medicinal Chemistry Perspective” (J Med Chem, 2024)
Blank lines part the entries; values can stand above or below the molecule they belong to.

Experiments:
Arginase-1 [1] = target: T1, Arginase-1 (Homo sapiens, UniProt P05089); experiment: Binding affinity to human recombinant ARG1 assessed as inhibition constant
T1 sequence (P05089 whole entry): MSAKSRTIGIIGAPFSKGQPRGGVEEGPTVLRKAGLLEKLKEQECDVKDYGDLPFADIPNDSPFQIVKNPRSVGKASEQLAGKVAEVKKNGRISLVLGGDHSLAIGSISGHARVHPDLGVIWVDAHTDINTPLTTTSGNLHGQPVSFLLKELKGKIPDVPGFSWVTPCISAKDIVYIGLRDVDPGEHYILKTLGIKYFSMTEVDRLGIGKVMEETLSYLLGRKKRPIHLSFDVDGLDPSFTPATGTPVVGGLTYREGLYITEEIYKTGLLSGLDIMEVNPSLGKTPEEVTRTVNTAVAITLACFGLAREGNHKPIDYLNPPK

Arginase-1 [2] = target: T1, Arginase-1; experiment: Inhibition of ARG1 (unknown origin)
Arginase-1 [3] = target: T1, Arginase-1; experiment: Inhibition of N-terminal hexa-histidine full-length human ARG1 extracted from Escherichia coli BL21 (DE3) Rosetta competent cells
[4] = target: T2, Arginase-2, mitochondrial (Homo sapiens, UniProt P78540); experiment: Inhibition of human recombinant ARG2
T2 sequence (P78540 whole entry): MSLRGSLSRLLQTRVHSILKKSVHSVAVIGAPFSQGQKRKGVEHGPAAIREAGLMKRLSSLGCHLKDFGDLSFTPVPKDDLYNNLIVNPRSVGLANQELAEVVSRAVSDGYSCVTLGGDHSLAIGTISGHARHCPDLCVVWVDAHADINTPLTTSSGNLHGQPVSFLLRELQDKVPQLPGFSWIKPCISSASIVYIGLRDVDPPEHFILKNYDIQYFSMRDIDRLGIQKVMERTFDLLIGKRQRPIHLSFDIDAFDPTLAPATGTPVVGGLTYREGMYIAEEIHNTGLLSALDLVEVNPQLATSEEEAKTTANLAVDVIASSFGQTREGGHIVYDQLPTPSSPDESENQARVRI

[5] = target: T2, Arginase-2, mitochondrial; experiment: Inhibition of human recombinant ARG2 extracted from Escherichia coli
[6] = target: T2, Arginase-2, mitochondrial; experiment: Inhibition of ARG2 (unknown origin)

Ki (Arginase-1 [1]): 60 µM
SMILES: N[C@@H](CCCCC=O)C(=O)O

IC50 (Arginase-1 [2]): 0.0069 µM
SMILES: CN[C@@H]1C[C@@H]2C[C@@](N)(C(=O)O)[C@@H](CCCB(O)O)[C@@H]2[C@H]1F

IC50 (Arginase-1 [3]): < 0.001 µM
SMILES: CC(C)(C)[C@H](N)C(=O)N[C@H]1CN[C@H](C(=O)O)[C@@H]1CCCB(O)O

IC50 [4]: 15 µM
SMILES: N[C@@H](CC/C=C/B(O)O)C(=O)O

IC50 [5]: 0.039 µM
SMILES: CN(C)C[C@@H]1CC[C@@H](CCB(O)O)C[C@]1(N)C(=O)O

IC50 (Arginase-1 [2]): 0.0147 µM
IC50 [6]: 0.023 µM
SMILES: O=C(O)[C@@]1(CCCCB(O)O)CCCN1

IC50 [6]: 0.026 µM
SMILES: N[C@@](CCCCB(O)O)(C(=O)O)C1CC(NCCCc2ccccc2)C1 (stereo partly drawn)
